Results: publication PMC9775191, “A Subset Screen of the Compounds Australia Scaffold Library Identifies 7-Acylaminodibenzoxazepinones as Potent and Selective Hits for Anti-Giardia Drug Discovery” (Biomedicines, 2022)

System: G. duodenalis BRIS/91/HEPU/1279
Assay: Primary Giardia screen at 10 µM (live-cell imaging, automated counting)
Type: cell-based, Giardia duodenalis
Settings: for % Inhibition n=1 48h / % Inhibition n=1 24h: first singlicate assay; for % Inhibition n=2 24h / % Inhibition n=2 48h: re-assessment
Outline: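 One concentration, 10 μM, is screened per compound in singlicate under microaerophilic gas (3% O2, 5% CO2, N2). Inhibition comes from automated image-based counts at 24 and 48 h, relative to 0.2% DMSO controls.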

SMILES: Cc1cccc(-n2c(CN3CCN(C(=O)NCC4CCCO4)CC3)nc3cccnc32)c1 (centres unmarked) [SN00796109]
- % Inhibition n=1 48h: 0.7%

SMILES: COc1ccc(-n2c(CN3CCN(S(=O)(=O)c4cc(C)ccc4C)CC3)nc3cccnc32)cc1 [SN00796116]
- % Inhibition n=1 48h: 13.7%

SMILES: CCc1ccc(-n2c(CN3CCN(S(C)(=O)=O)CC3)nc3cccnc32)cc1 [SN00796120]
- % Inhibition n=1 48h: 7.0%

SMILES: Cn1cc2c(n1)c(=O)n(Cc1ccccc1)c(=O)n2CC(=O)Nc1cccc(F)c1 [SN00796169]
- Average % Inhibition 24h: 30.6%
- % Inhibition n=1 24h: 37.8%
- % Inhibition n=2 24h: 23.4%
- Average % Inhibition 48h: 62.8%
- % Inhibition n=1 48h: 46.9%
- % Inhibition n=2 48h: 78.6%

SMILES: COc1ccccc1-c1nc(C2CCN(C(=O)COc3ccccc3)CC2)no1 [SN00796215]
- % Inhibition n=1 48h: 15.9%

SMILES: O=C(Cc1csc2nc(-c3ccccc3)cn12)NCCc1cccs1 [SN00796222]
- % Inhibition n=1 48h: 0.0%

SMILES: Cc1ccc(-n2nc(C)c3sc(N4CCCC(C(=O)NCc5ccc6c(c5)OCO6)C4)nc32)cc1 (centres unmarked) [SN00796247]
- % Inhibition n=1 48h: 0.0%

SMILES: Cc1ccc(-n2nc(C)c3sc(N4CCCC(C(=O)NCC5CCCO5)C4)nc32)cc1 (centres unmarked) [SN00796250]
- % Inhibition n=1 48h: 2.9%

SMILES: Cc1ccc(NC(=O)Nc2ccc3c(c2)CCN3S(=O)(=O)c2ccccc2)cc1 [SN00796277]
- % Inhibition n=1 48h: 10.0%

SMILES: Cc1c(F)cccc1NC(=O)Nc1ccc2c(c1)CCN2S(C)(=O)=O [SN00796291]
- % Inhibition n=1 48h: 21.1%

SMILES: Cc1sc2cc(-c3ccccc3)oc2c1C(=O)NCc1ccccc1 [SN00796296]
- % Inhibition n=1 48h: 20.2%

SMILES: COc1ccc(CNC(=O)c2c(C)sc3cc(-c4ccccc4)oc23)cc1 [SN00796298]
- % Inhibition n=1 48h: 29.4%

SMILES: COc1ccc(Cl)cc1NC(=O)Nc1ccc2c(c1)CN(Cc1ccccc1)C2 [SN00796317]
- Average % Inhibition 24h: 8.8%
- % Inhibition n=1 24h: 17.7%
- % Inhibition n=2 24h: 0.0%
- Average % Inhibition 48h: 37.5%
- % Inhibition n=1 48h: 57.6%
- % Inhibition n=2 48h: 17.4%

SMILES: Cc1ccc(NC(=O)Nc2ccc3c(c2)CN(Cc2ccccc2)C3)c(C)c1 [SN00796327]
- % Inhibition n=1 48h: 41.2%

SMILES: O=C(c1nnn(-c2ccccc2Cl)c1-c1ccncc1)N1CCc2ccccc2C1 [SN00796355]
- % Inhibition n=1 48h: 30.9%

SMILES: O=C(NCC1CC1)c1nnn(-c2ccccc2)c1-c1ccncc1 [SN00796358]
- % Inhibition n=1 48h: 0.0%

SMILES: CCOC(=O)N1CCN(c2cc(-c3nc(-c4cccc(OC)c4OC)no3)c3ccccc3n2)CC1 [SN00796395]
- % Inhibition n=1 48h: 18.1%

SMILES: COc1cccc(-c2noc(-c3cc(N4CCN(C(C)=O)CC4)nc4ccccc34)n2)c1OC [SN00796396]
- % Inhibition n=1 48h: 7.7%

SMILES: CC(C)C(=O)N1CCc2c(c(COCc3ccccc3F)nn2C)C1 [SN00796410]
- % Inhibition n=1 48h: 0.0%

SMILES: COCC(=O)N1CCc2c(c(COCc3ccc(C)cc3)nn2C)C1 [SN00796424]
- % Inhibition n=1 48h: 0.0%

SMILES: Cc1ccc(COCc2nn(C)c3c2CN(C(=O)Nc2ccccc2)CC3)cc1 [SN00796435]
- % Inhibition n=1 48h: 0.0%

SMILES: Cc1ccc(COCc2nn(C)c3c2CN(S(=O)(=O)c2ccc(F)c(C)c2)CC3)cc1 [SN00796451]
- % Inhibition n=1 48h: 2.1%

SMILES: CCc1nc(N2CCCC2=O)sc1C(=O)Nc1ccc(C)c(C)c1 [SN00796500]
- % Inhibition n=1 48h: 0.0%

SMILES: Cc1ccc(-c2nc(C(=O)N3CCN(c4ccc(Cl)cc4)CC3)cs2)s1 [SN00796526]
- % Inhibition n=1 48h: 7.8%

SMILES: O=C(c1nnn(-c2ccc(Cl)cc2)c1-c1cccnc1)N1CCCCC1 [SN00796543]
- % Inhibition n=1 48h: 20.4%
